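The compound was tested at five concentrations on cells cultured in 96-well plates, with a 48-hour exposure period. Abbreviation: GI50, concentration required for 50% inhibition of growth.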 Active and inactive are the calls of the source. No stated cut-off is given here; in the data, active = GI50 up to about 1.1 µM and inactive = higher.
Legend:
Assay in all cases: NCI-60 cell line screen, 48 h
HCT-15 = system: HCT-15
NCI/ADR-RES = system: NCI/ADR-RES
HOP-92 = system: HOP-92
TK-10 = system: TK-10
SK-MEL-28 = system: SK-MEL-28
MDA-MB-231 = system: MDA-MB-231
BT-549 = system: BT-549
COLO 205 = system: COLO 205
DU-145 = system: DU-145
OVCAR-8 = system: OVCAR-8
CCRF-CEM = system: CCRF-CEM
NCI-H226 = system: NCI-H226
T47D = system: T47D
MDA-MB-435 = system: MDA-MB-435
786-0 = system: 786-0
NCI-H460 = system: NCI-H460
ACHN = system: ACHN
SW-620 = system: SW-620
A498 = system: A498

Row | Structure (SMILES) | GI50 (HCT-15) | GI50 (NCI/ADR-RES) | GI50 (HOP-92) | GI50 (TK-10) | GI50 (SK-MEL-28) | GI50 (MDA-MB-231) | GI50 (BT-549) | GI50 (COLO 205) | GI50 (DU-145) | GI50 (OVCAR-8) | GI50 (CCRF-CEM) | GI50 (NCI-H226) | GI50 (T47D) | GI50 (MDA-MB-435) | GI50 (786-0) | GI50 (NCI-H460) | GI50 (ACHN) | GI50 (SW-620) | GI50 (A498)
1 | COc1cccc2cc(C(=O)Nc3ccccn3)c(=N)oc12 | > 100 µM | > 100 µM (inactive) | > 100 µM (inactive) | > 100 µM (inactive) | > 100 µM (inactive) | 63 µM (inactive) | 78.2 µM (inactive) | > 100 µM (inactive) | 54.8 µM (inactive) | > 100 µM (inactive) | 22.8 µM (inactive) | > 100 µM (inactive) | 33 µM (inactive) | 63.4 µM (inactive) | 95.1 µM (inactive) | > 100 µM (inactive) | 60.3 µM (inactive) | > 100 µM (inactive) | > 100 µM (inactive)
2 | Nc1ccc2c3[nH]c4cc(N)ccc4cc-3nc2c1 | 0.266 µM | 0.243 µM (active) | 0.0422 µM (active) | 2.09 µM (inactive) | 0.0746 µM (active) | 0.455 µM (active) | 0.984 µM (active) | 0.18 µM (active) | 0.318 µM (active) | 0.151 µM (active) | 0.158 µM (active) | 0.174 µM (active) | 0.284 µM (active) | 0.136 µM (active) | 0.121 µM (active) | 0.0775 µM (active) | 0.0236 µM (active) | 0.0603 µM (active) | 0.138 µM (active)
3 | Brc1ccc2[nH]cc(-c3csc(-c4c[nH]c5ccc(Br)cc45)n3)c2c1 | 2.02 µM | 2.21 µM (inactive) | 1.69 µM (inactive) | 2.69 µM (inactive) | 2.11 µM (inactive) | 1.66 µM (inactive) | 5.75 µM (inactive) | 1.61 µM (inactive) | 2.52 µM (inactive) | 2.45 µM (inactive) | 1.92 µM (inactive) | 2.1 µM (inactive) | 2.44 µM (inactive) | 1.93 µM (inactive) | 1.8 µM (inactive) | 1.73 µM (inactive) | 1.93 µM (inactive) | 1.84 µM (inactive) | 2.13 µM (inactive)
4 | Cc1ccc(/N=N\c2c(O)ccc3cc(S(=O)(=O)O)ccc23)cc1 | > 100 µM | > 100 µM (inactive) | > 100 µM (inactive) | > 100 µM (inactive) | > 100 µM (inactive) | > 100 µM (inactive) | > 100 µM (inactive) | > 100 µM (inactive) | > 100 µM (inactive) | > 100 µM (inactive) | > 100 µM (inactive) | > 100 µM (inactive) | > 100 µM (inactive) | > 100 µM (inactive) | > 100 µM (inactive) | > 100 µM (inactive) | > 100 µM (inactive) | > 100 µM (inactive) | > 100 µM (inactive)
5 | CC(C)[S+]1C2=C(CC(C)(C)CC2=O)[N-]c2ccccc21 (stereo not given) | > 100 µM | > 100 µM (inactive) | > 100 µM (inactive) | > 100 µM (inactive) | > 100 µM (inactive) | > 100 µM (inactive) | > 100 µM (inactive) | > 100 µM (inactive) | > 100 µM (inactive) | > 100 µM (inactive) | > 100 µM (inactive) | > 100 µM (inactive) | > 100 µM (inactive) | > 100 µM (inactive) | > 100 µM (inactive) | > 100 µM (inactive) | > 100 µM (inactive) | > 100 µM (inactive) | > 100 µM (inactive)
6 | Cc1ccc2c(c1)C(=O)C(C1OC(=O)c3ccccc31)C2 (stereo not given) | 42.8 µM | 33.7 µM (inactive) | > 100 µM (inactive) | 38.5 µM (inactive) | > 100 µM (inactive) | > 100 µM (inactive) | > 100 µM (inactive) | 56.2 µM (inactive) | > 100 µM (inactive) | > 100 µM (inactive) | 89.7 µM (inactive) | 30.5 µM (inactive) | 76.9 µM (inactive) | > 100 µM (inactive) | > 100 µM (inactive) | > 100 µM (inactive) | 83.8 µM (inactive) | > 100 µM (inactive) | > 100 µM (inactive)
7 | C=CCSC1=N/C(=C\c2ccccc2)C(=O)N1CC=C | 35.2 µM | 45.1 µM (inactive) | 17.1 µM (inactive) | > 74.6 µM (inactive) | > 83.8 µM (inactive) | 39.9 µM (inactive) | 40.7 µM (inactive) | 41.6 µM (inactive) | > 86.5 µM (inactive) | 32.7 µM (inactive) | 22.9 µM (inactive) | 28.5 µM (inactive) | 29.2 µM (inactive) | 36.8 µM (inactive) | 31.7 µM (inactive) | 41.6 µM (inactive) | 41.8 µM (inactive) | 49.7 µM (inactive) | 23.1 µM (inactive)
8 | Brc1ccc2[nH]cc(-c3csc(-c4c[nH]c5ccccc45)n3)c2c1 | 2.33 µM | 2.75 µM (inactive) | 3 µM (inactive) | 3.61 µM (inactive) | 5.06 µM (inactive) | 2.17 µM (inactive) | 5.7 µM (inactive) | 2.08 µM (inactive) | 3.52 µM (inactive) | 4.9 µM (inactive) | 2.11 µM (inactive) | 1.82 µM (inactive) | 4.24 µM (inactive) | 3.84 µM (inactive) | 2.37 µM (inactive) | 2.61 µM (inactive) | 5.5 µM (inactive) | 2.75 µM (inactive) | 5.19 µM (inactive)
9 | CCOc1ccc(/N=N/S(=O)(=O)O)cc1 | > 100 µM | > 100 µM (inactive) | > 100 µM (inactive) | > 100 µM (inactive) | > 100 µM (inactive) | > 100 µM (inactive) | > 100 µM (inactive) | > 100 µM (inactive) | > 100 µM (inactive) | > 100 µM (inactive) | > 100 µM (inactive) | > 100 µM (inactive) | > 100 µM (inactive) | > 100 µM (inactive) | > 100 µM (inactive) | > 100 µM (inactive) | > 100 µM (inactive) | > 100 µM (inactive) | > 100 µM (inactive)
10 | COc1ccc(-c2cc(-c3ccccc3)[nH]c(=S)c2C#N)cc1 | 34.7 µM | 39.1 µM (inactive) | 44.3 µM (inactive) | 76.7 µM (inactive) | 20 µM (inactive) | 32.4 µM (inactive) | 39.6 µM (inactive) | > 10 µM (inactive) | 52.2 µM (inactive) | 29.8 µM (inactive) | 17.3 µM (inactive) | 31.4 µM (inactive) | 8.63 µM (inactive) | 20.1 µM (inactive) | 27.2 µM (inactive) | 25.5 µM (inactive) | 33 µM (inactive) | 33 µM (inactive) | 15.3 µM (inactive)
11 | CSc1ncnc2c1ncn2CC(=O)C1CCC2C3CCC4=CC(=O)CCC4(C)C3CCC12C (stereo not given) | 4.56 µM | 2.5 µM (inactive) | 14.8 µM (inactive) | 4.46 µM (inactive) | 5.47 µM (inactive) | 6.64 µM (inactive) | 2.58 µM (inactive) | 3.41 µM (inactive) | 13.9 µM (inactive) | 3.53 µM (inactive) | 0.729 µM (active) | 5.85 µM (inactive) | 1.91 µM (inactive) | 2.96 µM (inactive) | 11 µM (inactive) | 4.35 µM (inactive) | 4.97 µM (inactive) | 9.16 µM (inactive) | 5.13 µM (inactive)
12 | CN1CCN(c2c(Cl)cc(Cl)c3[nH]c4ccccc4c(=O)c23)CC1 | 3.39 µM | 7.35 µM (inactive) | 1.35 µM (inactive) | 10.6 µM (inactive) | 13.1 µM (inactive) | 10.3 µM (inactive) | 16.1 µM (inactive) | 4.17 µM (inactive) | 5.4 µM (inactive) | 5.07 µM (inactive) | 0.67 µM (active) | 9.77 µM (inactive) | 9.23 µM (inactive) | 5.71 µM (inactive) | 5.75 µM (inactive) | 11.2 µM (inactive) | 2.9 µM (inactive) | 3.82 µM (inactive) | 3.96 µM (inactive)
13 | O=C(NNC(=S)Nc1ccccc1)c1cc(-c2ccccc2)nc2ccccc12 | 13.9 µM | 17.4 µM (inactive) | 15.6 µM (inactive) | 22 µM (inactive) | 16.4 µM (inactive) | 20.1 µM (inactive) | 21.6 µM (inactive) | 15.7 µM (inactive) | 17 µM (inactive) | 22.3 µM (inactive) | 12.4 µM (inactive) | 23.6 µM (inactive) | 7.4 µM (inactive) | 16.5 µM (inactive) | 15.8 µM (inactive) | 20.7 µM (inactive) | 27.5 µM (inactive) | 18.7 µM (inactive) | 11.5 µM (inactive)
14 | COc1ccc(C2=Nn3c(nnc(Cc4ccc(Cl)cc4)c3=O)SC2)cc1 | 29 µM | 19.8 µM (inactive) | > 100 µM (inactive) | > 100 µM (inactive) | 74.6 µM (inactive) | 60.3 µM (inactive) | 41.8 µM (inactive) | 50.8 µM (inactive) | 59.3 µM (inactive) | 93.1 µM (inactive) | 38.3 µM (inactive) | 94 µM (inactive) | 64 µM (inactive) | 10.4 µM (inactive) | 45 µM (inactive) | 37.8 µM (inactive) | 64.7 µM (inactive) | 47.4 µM (inactive) | 30.8 µM (inactive)
15 | COc1ccc(/C=C2\c3cc(OC)c(OC)cc3CCN2C(=O)c2ccccc2)cc1OC | 42.4 µM | 23.7 µM (inactive) | > 100 µM (inactive) | > 100 µM (inactive) | 46.7 µM (inactive) | 45.5 µM (inactive) | 27.7 µM (inactive) | 23.9 µM (inactive) | 55 µM (inactive) | 27.5 µM (inactive) | 32.3 µM (inactive) | 37.9 µM (inactive) | 33.3 µM (inactive) | 21.2 µM (inactive) | 34.4 µM (inactive) | 28.1 µM (inactive) | 53.5 µM (inactive) | 34.5 µM (inactive) | 35.4 µM (inactive)
